These results are taken from ChEMBL document CHEMBL4152225, “Dual-tail arylsulfone-based benzenesulfonamides differently match the hydrophobic and hydrophilic halves of human carbonic anhydrases active sites: Selective inhibitors for the tumor-associated hCA IX isoform” (Eur J Med Chem, 2018).

A word on the Ki: it is a dissociation constant, usually derived from enzyme kinetics or from competition with a known ligand. A word on the IC50: it is the concentration that inhibits the measured activity by half. A higher IC50 goes with weaker potency in that assay.

One experiment concerns the target Carbonic anhydrase 9 (Homo sapiens, UniProt Q16790). Description: Inhibition of recombinant human carbonic anhydrase 9 assessed as inhibition of CO2 hydration preincubated for 15 mins prior to testing by phenol red based stopped-flow assay.
The test system of another experiment is MCF7. Description: Cytotoxicity against human MCF7 cells under hypoxic condition by MTT assay. For orientation: Formazan colour is commonly taken as a measure of viable cells.
Another experiment concerns MDA-MB-231. Description: Cytotoxicity against human MDA-MB-231 cells under hypoxic condition by MTT assay.

On to `NS(=O)(=O)c1ccc(N/N=C(\CS(=O)(=O)c2ccccc2)c2ccc(Br)cc2)cc1`, for which the Ki at Carbonic anhydrase 9 stood at 61.2 nM.
For the compound `Cc1ccc(S(=O)(=O)C/C(=N\Nc2ccc(S(N)(=O)=O)cc2)c2ccc(Br)cc2)cc1`, on Carbonic anhydrase 9, the Ki is 56.1 nM.
Turning to `NS(=O)(=O)c1ccc(N/N=C(\CS(=O)(=O)c2ccccc2)c2ccc(Cl)cc2)cc1`, the Ki on Carbonic anhydrase 9 came to 34.8 nM.
With `NS(=O)(=O)c1ccc(N/N=C(\CS(=O)(=O)c2ccccc2)c2ccc([N+](=O)[O-])cc2)cc1`, the Ki on Carbonic anhydrase 9 came to 71.6 nM.
For the compound `COc1cccc2c1C(=O)c1c(O)c3c(c(O)c1C2=O)C[C@@](O)(C(=O)CO)C[C@@H]3O[C@H]1C[C@H](N)[C@H](O)[C@H](C)O1` [DOXORUBICIN], in the experiment on MCF7, the IC50 was determined as 370 nM.
For the compound `NS(=O)(=O)c1ccc(N/N=C(\CS(=O)(=O)c2ccccc2)c2ccc(F)cc2)cc1`, at Carbonic anhydrase 9, the Ki was 7.5 nM.
As to `NS(=O)(=O)c1ccc(N/N=C(\CS(=O)(=O)c2ccccc2)c2ccc(-c3ccccc3)cc2)cc1`, the Ki on Carbonic anhydrase 9 came out at 132 nM.
For the compound `NS(=O)(=O)c1ccc(N/N=C(\CS(=O)(=O)c2ccccc2)c2ccc3ccccc3c2)cc1`, on Carbonic anhydrase 9, the Ki was determined as 39.3 nM.
As to `NS(=O)(=O)c1ccc(N/N=C(\CS(=O)(=O)c2ccccc2)c2cc3ccccc3o2)cc1`, the Ki at Carbonic anhydrase 9 amounted to 69.1 nM.
Turning to `Cc1ccc(S(=O)(=O)C/C(=N\Nc2ccc(S(N)(=O)=O)cc2)c2ccc([N+](=O)[O-])cc2)cc1`, at Carbonic anhydrase 9, the Ki was determined as 79.2 nM.
Turning to `NS(=O)(=O)c1ccc(N/N=C(\CS(=O)(=O)c2ccccc2)c2ccco2)cc1`, the Ki on Carbonic anhydrase 9 is 79.3 nM.
Turning to `Cc1ccc(S(=O)(=O)C/C(=N\Nc2ccc(S(N)(=O)=O)cc2)c2ccc(Cl)cc2)cc1`, the Ki at Carbonic anhydrase 9 worked out at 8.7 nM. Further, the IC50 in the experiment with MCF7 worked out at 3900 nM; in the experiment with MDA-MB-231, 18200 nM.
Regarding `Cc1ccc(/C(CS(=O)(=O)c2ccc(C)cc2)=N/Nc2ccc(S(N)(=O)=O)cc2)cc1`, the Ki at Carbonic anhydrase 9 turned out to be 5.3 nM. In addition, the IC50 with MCF7 was determined as 2330 nM; in the experiment with MDA-MB-231, 5140 nM.
Turning to `Cc1ccc(S(=O)(=O)C/C(=N\Nc2ccc(S(N)(=O)=O)cc2)c2ccc(F)cc2)cc1`, the Ki on Carbonic anhydrase 9 is 27.6 nM.
Still for that read-out and setting: the result for `Cc1ccc(S(=O)(=O)C/C(=N\Nc2ccc(S(N)(=O)=O)cc2)c2ccc3ccccc3c2)cc1` reads 15.3 nM; that for `Cc1ccc(S(=O)(=O)C/C(=N\Nc2ccc(S(N)(=O)=O)cc2)c2ccsc2)cc1`, 56.3 nM.
As to `Cc1ccc(/C(CS(=O)(=O)c2ccccc2)=N/Nc2ccc(S(N)(=O)=O)cc2)cc1`, the Ki on Carbonic anhydrase 9 was 36.5 nM.
On to `Cc1ccc(S(=O)(=O)C/C(=N\Nc2ccc(S(N)(=O)=O)cc2)c2ccccc2)cc1`, for which the Ki at Carbonic anhydrase 9 was found to be 39.5 nM.
